From US6603044B1, “Phthalamide derivatives, or salt thereof agrohorticultural insecticide, and method for using the same” (Nihon Nohyaku Co., Ltd., priority 1998, dated 2003)

Experiments:
Format in all cases: in vivo
[1] = tested on: Diamond Back Moth (Plutella xylostella); assay: Insecticidal effect on diamond back moth (Test Example 1); details: 50 ppm; Chinese cabbage seedling with deposited eggs immersed about 30 seconds; 25° C.; six days after the immersion
How it was run: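 Mortality was scored six days after treatment by counting hatched insects, in three groups of 10. Treatment meant immersing egg-bearing cabbage seedlings (two days post-oviposition) for about 30 seconds in 50 ppm compound preparation, then drying and holding at 25° C.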

[2] = tested on: Common Cutworm (Spodoptera Litura); assay: Insecticidal effect on common cutworm (Test Example 2); details: 50 ppm; cabbage leaf immersed about 30 seconds; second-instar larvae; 25° C.; eight days after the inoculation
Excerpt: Insecticidal Effect on Common Cutworm (Spodoptera Litura)
A piece of cabbage leaf (cultivar; Shikidori) was immersed for about 30 seconds in a liquid chemical prepared by diluting a preparation containing each compound listed in Table 1, 2 or 3 as an active ingredient to adjust the concentration to 50 ppm. After air-dryness, it was placed in a plastic Petri dish with a diameter of 9 cm and inoculated with second-instar larvae of common cutworm, after which the dish was closed and then allowed to stand in a room thermostatted at 25° C. Eight days after the inoculation, the dead and alive were counted. The mortality was calculated according to the following equation and the insecticidal effect was judged according to the criterion shown in Test Example 1. The test was carried out with triplicate groups of 10 insects. [formula]

[3] = tested on: Smaller tea Tortrix (Adoxophyes sp.); assay: Insecticidal effect on smaller tea tortrix (Test Example 3); details: 50 ppm; tea leaf immersed 30 seconds; larvae; 25° C., humidity 70%; eight days after the inoculation
Procedure: Insecticidal Effect on Smaller tea Tortrix (Adoxophyes sp.)
A leaf of tea tree was immersed for 30 seconds in a liquid chemical containing each compound listed in Table 1, 2 or 3 as an active ingredient to adjust the concentration to 50 ppm. After air-dryness, the leaf was transferred to a plastic dish with a diameter of 9 cm and inoculated with larval smaller tea tortrix. Then, the leaf was allowed to stand in a room thermostatted at 25° C. at a humidity of 70%. Eight days after the inoculation, the dead and alive were counted, and the insecticidal effect was judged according to the same criterion as mentioned in Test Example 1. The test was carried out with triplicate groups of 10 insects.

Compound | Test Example 1 insecticidal effect (mortality) [1] | Test Example 2 insecticidal effect (mortality) [2] | Test Example 3 insecticidal effect (mortality) [3]
CSCCC(C)NC(=O)c1cccc(I)c1C(=O)Nc1ccc(C(F)(C(F)(F)F)C(F)(F)F)cc1C (centres unmarked) [Compound No. 162, 6-Iodo-N^1-(4-heptafluoroisopropyl-2-methylphenyl)-N^2-(1-methyl-3-methylthiopropyl)phthalamide] | A (100) | A (100) | A (100)
CSCCC(C)NC(=O)c1c(I)cccc1C(=O)Nc1ccc(C(F)(C(F)(F)F)C(F)(F)F)cc1C (centres unmarked) [Compound No. 195, 3-Iodo-N^1-(4-heptafluoroisopropyl-2-methylphenyl)-N^2-(1-methyl-3-methylsulfenylpropyl)-phthalamide] | A (100) | A (100) | A (100)
Cc1cc(C(F)(C(F)(F)F)C(F)(F)F)ccc1NC(=O)c1cccc(I)c1C(=O)NC(C)CCS(C)(=O)=O (centres unmarked) [Compound No. 196, 3-Iodo-N^1-(4-heptafluoroisopropyl-2-methylphenyl)-N^2-(1-methyl-3-methylsulfonylpropyl)-phthalamide] | A (100) | A (100) | A (100)
CSCC(C)NC(=O)c1c(OC(F)(F)F)cccc1C(=O)Nc1ccc(C(F)(C(F)(F)F)C(F)(F)F)cc1C (centres unmarked) [Compound No. 210, N^1-(4-Heptafluoroisopropyl-2-methylphenyl)-N^2-3-(1-methyl-2-methylthioethyl)-3-trifluoromethoxyphthalamide] | A (100) | A (100) | A (100)
Cc1cc(OC(F)(F)F)ccc1NC(=O)c1cccc(I)c1C(=O)NC(C)(C)C[S+](C)[O-] (centres unmarked) [compound 141] | A (100) | A (100) | 
Cc1cc(OC(F)(F)F)ccc1NC(=O)c1cccc(Cl)c1C(=O)NC(C)C[S+](C)[O-] (centres unmarked) [compound 143] | A (100) | D (79-50) | 
Cc1cc(C(F)(F)C(F)(F)F)ccc1NC(=O)c1cccc(Cl)c1C(=O)NC(C)C[S+](C)[O-] (centres unmarked) [compound 144] | A (100) | A (100) | 
CSCC(C)NC(=O)c1c(C(=O)Nc2ccc(C(F)(F)C(F)(F)F)cc2C)ccc(F)c1Cl (centres unmarked) [compound 148] | A (100) | C (89-80) | 
CSCC(C)NC(=O)c1c(C(=O)Nc2ccc(C(F)(C(F)(F)F)C(F)(F)F)cc2C)ccc(F)c1Cl (centres unmarked) [compound 149] | A (100) | A (100) | 
Cc1cc(OC(F)(F)F)ccc1NC(=O)c1ccc(Cl)c(Cl)c1C(=O)NC(C)C[S+](C)[O-] (centres unmarked) [compound 193] | A (100) | D (79-50) | 
CSCC(C)(C)NC(=O)c1c(Br)cccc1C(=O)Nc1ccc(OC(F)(F)F)cc1Cl [compound 227] | A (100) | A (100) | 
CC(C)(CS(C)(=O)=O)NC(=O)c1c(Br)cccc1C(=O)Nc1ccc(OC(F)(F)F)cc1Cl [compound 228] | A (100) | A (100) | 
C[S+]([O-])CC(C)(C)NC(=O)c1c(Br)cccc1C(=O)Nc1ccc(OC(F)(F)F)cc1Cl (centres unmarked) [compound 232] | A (100) | A (100) | 
CSCC(C)NC(=O)c1c(I)cccc1C(=O)Nc1ccc(OC(F)(F)F)cc1Cl (centres unmarked) [compound 233] | A (100) | A (100) | 
CCS(=O)(=O)CC(C)(C)NC(=O)c1c(I)cccc1C(=O)Nc1ccc(OC(F)(F)F)cc1C [compound 250] | A (100) | A (100) | 
CSCC(C)NC(=O)c1c(C(=O)Nc2ccc(OC(F)(F)F)cc2C)ccc2c1OC(F)(F)O2 (centres unmarked) [compound 290] | A (100) | D (79-50) | 
Cc1cc(C(F)(F)F)ccc1NC(=O)c1cccc(Br)c1C(=O)NC(C)(C)C[S+](C)[O-] (centres unmarked) [compound 311] | A (100) | A (100) | 
CSCC(C)NC(=O)c1c(Br)cccc1C(=O)Nc1ccc(OC(F)(F)F)cc1Cl (centres unmarked) [compound 337] | A (100) | A (100) | 
CC(C[S+](C)[O-])NC(=O)c1c(Br)cccc1C(=O)Nc1ccc(OC(F)(F)F)cc1Cl (centres unmarked) [compound 338] | A (100) | A (100) | 
COCC[S+]([O-])CC(C)NC(=O)c1c(I)cccc1C(=O)Nc1ccc(C(F)(C(F)(F)F)C(F)(F)F)cc1C (centres unmarked) [compound 340] | A (100) | A (100) | 
C[S+]([O-])CC(C)(C)NC(=O)c1c(Cl)cccc1C(=O)Nc1ccc(OC(F)(F)F)cc1Cl (centres unmarked) [compound 370] | A (100) | A (100) | 
Cc1cc(C(F)(F)C(F)(F)F)ccc1NC(=O)c1cccc([N+](=O)[O-])c1C(=O)NC(C)(C)CS(C)(=O)=O [compound 375] | A (100) | A (100) | 
CC(C[S+](C)[O-])NC(=O)c1c(Cl)cccc1C(=O)Nc1ccc(OC(F)(F)F)cc1Cl (centres unmarked) [compound 381] | A (100) | A (100) | 
CSCC(C)(C)NC(=O)c1c(F)cccc1C(=O)Nc1ccc(OC(F)(F)F)cc1Cl [compound 385] | A (100) | C (89-80) | 
Cc1cc(Oc2ncc(C(F)(F)F)cc2Cl)ccc1NC(=O)c1cccc(I)c1C(=O)NC(C)C[S+](C)[O-] (centres unmarked) [compound 410] | A (100) | A (100) | 
CNC(=S)SCC(C)NC(=O)c1c(I)cccc1C(=O)Nc1ccc(C(F)(C(F)(F)F)C(F)(F)F)cc1C (centres unmarked) [compound 425] | A (100) | A (100) | 
